{"source": "patent US20100234339A1", "about": "“SILVER(I) COMPOUNDS AND THEIR USE IN PHARMACEUTICAL COMPOSITIONS FOR THE TREATMENT,PROPHYLAXIS AND PREVENTION OF INFECTIONS” (priority 2007, published 2010)", "key": {"P. mirabilis 3": {"tested_on": "P. mirabilis 3", "experiment": "MIC, broth microdilution (NCCLS)", "assay_type": "cell-based", "details": "Gram negative; resistant clinical isolate from diabetic foot ulcer; MHB 24 h 35° C.", "method": "(§1) Their antimicrobial activity was established according to the recommendations of NCCLS, (National Committee for Clinical Laboratory Standards 1999, “Performance standards for antimicrobial susceptibility testing. NCCLS approved standard M100-S9” Wayne, Pa.) by the use of a broth microdilution method. Minimum inhibitory concentrations (MICs) for the tested compound were conducted using 12 different pathogens clinically isolated from diabetic foot ulcers and are all resistant strains for at least 10 antibiotics used for diabetic foot ulcer treatment. S. aureus 1, 2 and 3 and S. pyogenes 1, 2 and 3 as […] bacteria and P. mirabilis 1, 2 and 3 and Ps. aeruginosa 1, 2 and 3 as […] bacteria. The test materials were dissolved in DMSO. The highest concentration used was 256 μg/ml. The inoculum was 10^5CFU/ml for bacteria and 10^4CFU/ml for the yeast. Bacteria were cultured in Mueller Hinton Broth (MHB) for 24 h at 35° C. and the yeast in Glucose Peptone Broth (GPB) for 48 h at 30° C. MIC value was corresponding to the lowest concentration that inhibited the bacterial growth.\n(§2) For the following seven samples, MICs values were determined and the antimicrobial activity is inversely proportional to this value. Concentrations used in this screening were: 1, 2, 4, 8, 16, 32, 64, 128 and 256 (μg/ml). 1 μg/ml corresponds to a 10^−4% solution and an Ag(I) concentration of about 2·10^−6 mol/dm^3."}, "S. pyogenes 3": {"tested_on": "S. pyogenes 3", "experiment": "MIC, broth microdilution (NCCLS)", "assay_type": "cell-based", "details": "Gram positive; resistant clinical isolate from diabetic foot ulcer; MHB 24 h 35° C.", "method": "as §1, §2"}, "Ps. aeruginosa 1": {"tested_on": "Ps. aeruginosa 1", "experiment": "MIC, broth microdilution (NCCLS)", "assay_type": "cell-based", "details": "Gram negative; resistant clinical isolate from diabetic foot ulcer; MHB 24 h 35° C.", "method": "as §1, §2"}, "S. pyogenes 2": {"tested_on": "S. pyogenes 2", "experiment": "MIC, broth microdilution (NCCLS)", "assay_type": "cell-based", "details": "Gram positive; resistant clinical isolate from diabetic foot ulcer; MHB 24 h 35° C.", "method": "as §1, §2"}, "S. aureus 2": {"tested_on": "S. aureus 2", "experiment": "MIC, broth microdilution (NCCLS)", "assay_type": "cell-based", "details": "Gram positive; resistant clinical isolate from diabetic foot ulcer; MHB 24 h 35° C.", "method": "as §1, §2"}, "P. mirabilis 1": {"tested_on": "P. mirabilis 1", "experiment": "MIC, broth microdilution (NCCLS)", "assay_type": "cell-based", "details": "Gram negative; resistant clinical isolate from diabetic foot ulcer; MHB 24 h 35° C.", "method": "as §1, §2"}, "S. pyogenes 1": {"tested_on": "S. pyogenes 1", "experiment": "MIC, broth microdilution (NCCLS)", "assay_type": "cell-based", "details": "Gram positive; resistant clinical isolate from diabetic foot ulcer; MHB 24 h 35° C.", "method": "as §1, §2"}, "P. mirabilis 2": {"tested_on": "P. mirabilis 2", "experiment": "MIC, broth microdilution (NCCLS)", "assay_type": "cell-based", "details": "Gram negative; resistant clinical isolate from diabetic foot ulcer; MHB 24 h 35° C.", "method": "as §1, §2"}, "S. aureus 3": {"tested_on": "S. aureus 3", "experiment": "MIC, broth microdilution (NCCLS)", "assay_type": "cell-based", "details": "Gram positive; resistant clinical isolate from diabetic foot ulcer; MHB 24 h 35° C.", "method": "as §1, §2"}, "S. aureus 1": {"tested_on": "S. aureus 1", "experiment": "MIC, broth microdilution (NCCLS)", "assay_type": "cell-based", "details": "Gram positive; resistant clinical isolate from diabetic foot ulcer; MHB 24 h 35° C.", "method": "as §1, §2"}, "Solubility in DMSO": {"experiment": "Solubility in DMSO", "assay_type": "physicochemical", "details": "sparingly soluble"}}}
{"smiles": "Nc1ncccc1C(=O)O.Nc1ncccc1C(=O)O.O=[N+]([O-])[O-].O=[N+]([O-])[O-].[Ag+].[Ag+]", "note": "[Compound 6, [Ag2-μ-O,O′(2-aminonicotinium)2](NO3)2]", "values": [{"measurement": "MIC P. mirabilis 3", "setting": "P. mirabilis 3", "result": 32, "unit": "µg/mL"}, {"measurement": "MIC S. pyogenes 3", "setting": "S. pyogenes 3", "result": 256, "unit": "µg/mL"}, {"measurement": "MIC Ps. Aeruginosa 1", "setting": "Ps. aeruginosa 1", "result": 8, "unit": "µg/mL"}, {"measurement": "MIC S. pyogenes 2", "setting": "S. pyogenes 2", "result": 256, "unit": "µg/mL"}, {"measurement": "MIC S. aureus 2", "setting": "S. aureus 2", "result": 32, "unit": "µg/mL"}, {"measurement": "MIC P. mirabilis 1", "setting": "P. mirabilis 1", "result": 64, "unit": "µg/mL"}, {"measurement": "MIC S. pyogenes 1", "setting": "S. pyogenes 1", "result": 128, "unit": "µg/mL"}, {"measurement": "MIC P. mirabilis 2", "setting": "P. mirabilis 2", "result": 16, "unit": "µg/mL"}, {"measurement": "MIC S. aureus 3", "setting": "S. aureus 3", "result": 64, "unit": "µg/mL"}, {"measurement": "MIC S. aureus 1", "setting": "S. aureus 1", "result": 32, "unit": "µg/mL"}]}
{"smiles": "CCOC(=O)c1cccnc1.O=[N+]([O-])[O-].[Ag+]", "note": "[Compound 2, [Ag(ethylnicotinate)2]NO3]", "values": [{"measurement": "solubility in DMSO", "setting": "Solubility in DMSO", "result": "3000 to 5000", "unit": "µg/mL"}, {"measurement": "MIC P. mirabilis 3", "setting": "P. mirabilis 3", "result": 256, "unit": "µg/mL"}, {"measurement": "MIC S. pyogenes 3", "setting": "S. pyogenes 3", "result": 2, "unit": "µg/mL"}, {"measurement": "MIC Ps. Aeruginosa 1", "setting": "Ps. aeruginosa 1", "result": 64, "unit": "µg/mL"}, {"measurement": "MIC S. pyogenes 2", "setting": "S. pyogenes 2", "result": 4, "unit": "µg/mL"}, {"measurement": "MIC S. aureus 2", "setting": "S. aureus 2", "result": 4, "unit": "µg/mL"}, {"measurement": "MIC P. mirabilis 1", "setting": "P. mirabilis 1", "result": 128, "unit": "µg/mL"}, {"measurement": "MIC S. pyogenes 1", "setting": "S. pyogenes 1", "result": 2, "unit": "µg/mL"}, {"measurement": "MIC P. mirabilis 2", "setting": "P. mirabilis 2", "result": 128, "unit": "µg/mL"}, {"measurement": "MIC S. aureus 3", "setting": "S. aureus 3", "result": 4, "unit": "µg/mL"}, {"measurement": "MIC S. aureus 1", "setting": "S. aureus 1", "result": 16, "unit": "µg/mL"}]}
{"smiles": "COC(=O)c1ccncc1.O=[N+]([O-])[O-].[Ag+]", "note": "[Compound 4, [Ag(methylisonicotinate)2]NO3]", "values": [{"measurement": "solubility in DMSO", "setting": "Solubility in DMSO", "result": "3000 to 5000", "unit": "µg/mL"}, {"measurement": "MIC P. mirabilis 3", "setting": "P. mirabilis 3", "result": 2, "unit": "µg/mL"}, {"measurement": "MIC S. pyogenes 3", "setting": "S. pyogenes 3", "result": 64, "unit": "µg/mL"}, {"measurement": "MIC Ps. Aeruginosa 1", "setting": "Ps. aeruginosa 1", "result": 128, "unit": "µg/mL"}, {"measurement": "MIC S. pyogenes 2", "setting": "S. pyogenes 2", "result": 128, "unit": "µg/mL"}, {"measurement": "MIC S. aureus 2", "setting": "S. aureus 2", "result": 32, "unit": "µg/mL"}, {"measurement": "MIC P. mirabilis 1", "setting": "P. mirabilis 1", "result": 2, "unit": "µg/mL"}, {"measurement": "MIC S. pyogenes 1", "setting": "S. pyogenes 1", "result": 64, "unit": "µg/mL"}, {"measurement": "MIC P. mirabilis 2", "setting": "P. mirabilis 2", "result": 1, "unit": "µg/mL"}, {"measurement": "MIC S. aureus 3", "setting": "S. aureus 3", "result": 8, "unit": "µg/mL"}, {"measurement": "MIC S. aureus 1", "setting": "S. aureus 1", "result": 16, "unit": "µg/mL"}]}
{"smiles": "CCOC(=O)c1ccncc1.O=[N+]([O-])[O-].[Ag+]", "note": "[Compound 3, [Ag(ethylisonicotinato)2]NO3]", "values": [{"measurement": "solubility in DMSO", "setting": "Solubility in DMSO", "result": "3000 to 5000", "unit": "µg/mL"}, {"measurement": "MIC P. mirabilis 3", "setting": "P. mirabilis 3", "result": 16, "unit": "µg/mL"}, {"measurement": "MIC S. pyogenes 3", "setting": "S. pyogenes 3", "result": 16, "unit": "µg/mL"}, {"measurement": "MIC Ps. Aeruginosa 1", "setting": "Ps. aeruginosa 1", "result": 32, "unit": "µg/mL"}, {"measurement": "MIC S. pyogenes 2", "setting": "S. pyogenes 2", "result": 16, "unit": "µg/mL"}, {"measurement": "MIC S. aureus 2", "setting": "S. aureus 2", "result": 4, "unit": "µg/mL"}, {"measurement": "MIC P. mirabilis 1", "setting": "P. mirabilis 1", "result": 8, "unit": "µg/mL"}, {"measurement": "MIC S. pyogenes 1", "setting": "S. pyogenes 1", "result": 32, "unit": "µg/mL"}, {"measurement": "MIC P. mirabilis 2", "setting": "P. mirabilis 2", "result": 2, "unit": "µg/mL"}, {"measurement": "MIC S. aureus 3", "setting": "S. aureus 3", "result": 16, "unit": "µg/mL"}, {"measurement": "MIC S. aureus 1", "setting": "S. aureus 1", "result": 8, "unit": "µg/mL"}]}
